Test results as given in PubChem BioAssay AID1259407 (Chemical Carcinogenesis Research Information System (CCRIS), 2018).
The source made the active and inactive calls. How the calls were made is not given here.

Tested on: CCRIS mutagenicity, Ames/micronucleus/aberration tests
Assay: CCRIS mutagenicity studies

**Q.** CC(CC(=O)O)C(=O)O (stereo not given) was tested. Which mutagenic call (Test System: AMES SALMONELLA TYPHIMURIUM, Strain/Indicator: TA97, Metabolic Activation: HAMSTER, LIVER, S-9, AROCLOR 1254 (10%), Method: PREINCUBATION) did it give?
**A.** inactive; negative

**Q.** What about the mutagenic call (Test System: AMES SALMONELLA TYPHIMURIUM, Strain/Indicator: TA97, Metabolic Activation: HAMSTER, LIVER, S-9, AROCLOR 1254 (30%), Method: PREINCUBATION) of the same molecule?
**A.** inactive; negative

**Q.** And the mutagenic call (Test System: AMES SALMONELLA TYPHIMURIUM, Strain/Indicator: TA97, Metabolic Activation: NONE, Method: PREINCUBATION)?
**A.** inactive; negative

**Q.** What about the mutagenic call (Test System: AMES SALMONELLA TYPHIMURIUM, Strain/Indicator: TA97, Metabolic Activation: RAT, LIVER, S-9, AROCLOR 1254 (10%), Method: PREINCUBATION) of the same molecule?
**A.** inactive; negative

**Q.** And the mutagenic call (Test System: AMES SALMONELLA TYPHIMURIUM, Strain/Indicator: TA97, Metabolic Activation: RAT, LIVER, S-9, AROCLOR 1254 (30%), Method: PREINCUBATION)?
**A.** inactive; negative

**Q.** And the mutagenic call (Test System: AMES SALMONELLA TYPHIMURIUM, Strain/Indicator: TA98, Metabolic Activation: HAMSTER, LIVER, S-9, AROCLOR 1254 (10%), Method: PREINCUBATION)?
**A.** inactive; negative

**Q.** What about the mutagenic call (Test System: AMES SALMONELLA TYPHIMURIUM, Strain/Indicator: TA98, Metabolic Activation: HAMSTER, LIVER, S-9, AROCLOR 1254 (30%), Method: PREINCUBATION) of the same molecule?
**A.** inactive; negative

**Q.** What about the mutagenic call (Test System: AMES SALMONELLA TYPHIMURIUM, Strain/Indicator: TA98, Metabolic Activation: NONE, Method: PREINCUBATION) of the same molecule?
**A.** inactive; negative

**Q.** And the mutagenic call (Test System: AMES SALMONELLA TYPHIMURIUM, Strain/Indicator: TA98, Metabolic Activation: RAT, LIVER, S-9, AROCLOR 1254 (10%), Method: PREINCUBATION)?
**A.** inactive; negative

**Q.** What about the mutagenic call (Test System: AMES SALMONELLA TYPHIMURIUM, Strain/Indicator: TA98, Metabolic Activation: RAT, LIVER, S-9, AROCLOR 1254 (30%), Method: PREINCUBATION) of the same molecule?
**A.** inactive; negative

**Q.** And the mutagenic call (Test System: AMES SALMONELLA TYPHIMURIUM, Strain/Indicator: TA100, Metabolic Activation: HAMSTER, LIVER, S-9, AROCLOR 1254 (10%), Method: PREINCUBATION)?
**A.** inactive; negative

**Q.** And the mutagenic call (Test System: AMES SALMONELLA TYPHIMURIUM, Strain/Indicator: TA100, Metabolic Activation: HAMSTER, LIVER, S-9, AROCLOR 1254 (30%), Method: PREINCUBATION)?
**A.** inactive; negative

**Q.** What about the mutagenic call (Test System: AMES SALMONELLA TYPHIMURIUM, Strain/Indicator: TA100, Metabolic Activation: NONE, Method: PREINCUBATION) of the same molecule?
**A.** inactive; negative

**Q.** And the mutagenic call (Test System: AMES SALMONELLA TYPHIMURIUM, Strain/Indicator: TA100, Metabolic Activation: RAT, LIVER, S-9, AROCLOR 1254 (10%), Method: PREINCUBATION)?
**A.** inactive; negative

**Q.** And the mutagenic call (Test System: AMES SALMONELLA TYPHIMURIUM, Strain/Indicator: TA100, Metabolic Activation: RAT, LIVER, S-9, AROCLOR 1254 (30%), Method: PREINCUBATION)?
**A.** inactive; negative

**Q.** What about the mutagenic call (Test System: AMES SALMONELLA TYPHIMURIUM, Strain/Indicator: TA1535, Metabolic Activation: HAMSTER, LIVER, S-9, AROCLOR 1254 (10%), Method: PREINCUBATION) of the same molecule?
**A.** inactive; negative

**Q.** What about the mutagenic call (Test System: AMES SALMONELLA TYPHIMURIUM, Strain/Indicator: TA1535, Metabolic Activation: HAMSTER, LIVER, S-9, AROCLOR 1254 (30%), Method: PREINCUBATION) of the same molecule?
**A.** inactive; negative

**Q.** And the mutagenic call (Test System: AMES SALMONELLA TYPHIMURIUM, Strain/Indicator: TA1535, Metabolic Activation: NONE, Method: PREINCUBATION)?
**A.** inactive; negative

**Q.** What about the mutagenic call (Test System: AMES SALMONELLA TYPHIMURIUM, Strain/Indicator: TA1535, Metabolic Activation: RAT, LIVER, S-9, AROCLOR 1254 (10%), Method: PREINCUBATION) of the same molecule?
**A.** inactive; negative

**Q.** What about the mutagenic call (Test System: AMES SALMONELLA TYPHIMURIUM, Strain/Indicator: TA1535, Metabolic Activation: RAT, LIVER, S-9, AROCLOR 1254 (30%), Method: PREINCUBATION) of the same molecule?
**A.** inactive; negative

**Q.** What about the mutagenic call (Test System: AMES SALMONELLA TYPHIMURIUM, Strain/Indicator: TA1537, Metabolic Activation: HAMSTER, LIVER, S-9, AROCLOR 1254 (30%), Method: PREINCUBATION) of the same molecule?
**A.** inactive; negative

**Q.** What about the mutagenic call (Test System: AMES SALMONELLA TYPHIMURIUM, Strain/Indicator: TA1537, Metabolic Activation: NONE, Method: PREINCUBATION) of the same molecule?
**A.** inactive; negative

**Q.** And the mutagenic call (Test System: AMES SALMONELLA TYPHIMURIUM, Strain/Indicator: TA1537, Metabolic Activation: RAT, LIVER, S-9, AROCLOR 1254 (30%), Method: PREINCUBATION)?
**A.** inactive; negative

**Q.** For O=C(O)C(=O)Nc1cccc(-c2nn[nH]n2)c1, which mutagenic call (Test System: AMES SALMONELLA TYPHIMURIUM, Strain/Indicator: TA98, Metabolic Activation: NONE, Method: STANDARD PLATE) is on record?
**A.** inactive; negative

**Q.** What about the mutagenic call (Test System: AMES SALMONELLA TYPHIMURIUM, Strain/Indicator: TA98, Metabolic Activation: RAT, LIVER, S-9, PHENOBARBITAL AND 5,6-BENZOFLAVONE, Method: STANDARD PLATE) of the same molecule?
**A.** inactive; negative

**Q.** What about the mutagenic call (Test System: AMES SALMONELLA TYPHIMURIUM, Strain/Indicator: TA100, Metabolic Activation: NONE, Method: STANDARD PLATE) of the same molecule?
**A.** inactive; negative

**Q.** And the mutagenic call (Test System: AMES SALMONELLA TYPHIMURIUM, Strain/Indicator: TA100, Metabolic Activation: RAT, LIVER, S-9, PHENOBARBITAL AND 5,6-BENZOFLAVONE, Method: STANDARD PLATE)?
**A.** inactive; negative

**Q.** What about the mutagenic call (Test System: AMES SALMONELLA TYPHIMURIUM, Strain/Indicator: TA1535, Metabolic Activation: NONE, Method: STANDARD PLATE) of the same molecule?
**A.** inactive; negative

**Q.** And the mutagenic call (Test System: AMES SALMONELLA TYPHIMURIUM, Strain/Indicator: TA1535, Metabolic Activation: RAT, LIVER, S-9, PHENOBARBITAL AND 5,6-BENZOFLAVONE, Method: STANDARD PLATE)?
**A.** inactive; negative

**Q.** And the mutagenic call (Test System: AMES SALMONELLA TYPHIMURIUM, Strain/Indicator: TA1537, Metabolic Activation: NONE, Method: STANDARD PLATE)?
**A.** inactive; negative

**Q.** What about the mutagenic call (Test System: AMES SALMONELLA TYPHIMURIUM, Strain/Indicator: TA1537, Metabolic Activation: RAT, LIVER, S-9, PHENOBARBITAL AND 5,6-BENZOFLAVONE, Method: STANDARD PLATE) of the same molecule?
**A.** inactive; negative

**Q.** And the mutagenic call (Test System: E. COLI, Strain/Indicator: WP2 UVRA, Metabolic Activation: NONE, Method: STANDARD PLATE)?
**A.** inactive; negative

**Q.** How did the mutagenic call (End Point: In vitro chromosomal aberrations, Test System: Chinese hamster lung (CHL) cells, Metabolic Activation: None) turn out when CCCCOC(=O)[C@@H](C)Oc1ccc(Oc2ccc(C#N)cc2F)cc1 was run?
**A.** active; positive (ploidy)

**Q.** What about the mutagenic call (End Point: In vitro chromosomal aberrations, Test System: Chinese hamster lung (CHL) cells, Metabolic Activation: Rat, liver, S-9, Aroclor 1254) of the same molecule?
**A.** inactive; negative

**Q.** What about the mutagenic call (End Point: In vivo micronucleus, Test System: Bone marrow polychromatic erythgrocytes, Species: Mouse, Strain/Sex: ICR (Crj:CD-1)/ Female, Route: Oral (Gavage)) of the same molecule?
**A.** inactive; negative

**Q.** What about the mutagenic call (End Point: In vivo micronucleus, Test System: Bone marrow polychromatic erythgrocytes, Species: Mouse, Strain/Sex: ICR (Crj:CD-1)/ Male, Route: Oral (Gavage)) of the same molecule?
**A.** inactive; negative

**Q.** And the mutagenic call (End Point: In vivo micronucleus, Test System: Bone marrow polychromatic erythrocytes, Species: Mouse, Strain/Sex: ICR (Crj:CD-1)/ Female, Route: Oral (Gavage))?
**A.** inactive; negative

**Q.** And the mutagenic call (End Point: In vivo micronucleus, Test System: Bone marrow polychromatic erythrocytes, Species: Mouse, Strain/Sex: ICR (Crj:CD-1)/ Male, Route: Oral (Gavage))?
**A.** inactive; negative

**Q.** What about the mutagenic call (Test System: Ames Salmonella typhimurium, Strain/Indicator: TA98, Metabolic Activation: None, Method: Plate incorporation) of the same molecule?
**A.** inactive; negative

**Q.** And the mutagenic call (Test System: Ames Salmonella typhimurium, Strain/Indicator: TA98, Metabolic Activation: Rat, liver, S-9, Aroclor-1254, Method: Plate incorporation)?
**A.** inactive; negative

**Q.** And the mutagenic call (Test System: Ames Salmonella typhimurium, Strain/Indicator: TA100, Metabolic Activation: None, Method: Plate incorporation)?
**A.** inactive; negative

**Q.** And the mutagenic call (Test System: Ames Salmonella typhimurium, Strain/Indicator: TA100, Metabolic Activation: Rat, liver, S-9, Aroclor-1254, Method: Plate incorporation)?
**A.** inactive; negative

**Q.** And the mutagenic call (Test System: Ames Salmonella typhimurium, Strain/Indicator: TA1535, Metabolic Activation: None, Method: Plate incorporation)?
**A.** inactive; negative

**Q.** And the mutagenic call (Test System: Ames Salmonella typhimurium, Strain/Indicator: TA1535, Metabolic Activation: Rat, liver, S-9, Aroclor-1254, Method: Plate incorporation)?
**A.** inactive; negative

**Q.** What about the mutagenic call (Test System: Ames Salmonella typhimurium, Strain/Indicator: TA1537, Metabolic Activation: None, Method: Plate incorporation) of the same molecule?
**A.** inactive; negative

**Q.** What about the mutagenic call (Test System: Ames Salmonella typhimurium, Strain/Indicator: TA1537, Metabolic Activation: Rat, liver, S-9, Aroclor-1254, Method: Plate incorporation) of the same molecule?
**A.** inactive; negative

**Q.** And the mutagenic call (Test System: E. coli, Strain/Indicator: WP2 uvrA, Metabolic Activation: None, Method: Standard plate)?
**A.** inactive; negative

**Q.** What about the mutagenic call (Test System: E. coli, Strain/Indicator: WP2 uvrA, Metabolic Activation: Rat, liver, S-9, Aroclor-1254, Method: Standard plate) of the same molecule?
**A.** inactive; negative

**Q.** And the mutagenic call (Test System: Mouse lymphoma, Strain/Indicator: L5178Y cells (TK+/TK-), Metabolic Activation: None, Method: Suspension/plate)?
**A.** inactive; negative

**Q.** What about the mutagenic call (Test System: Mouse lymphoma, Strain/Indicator: L5178Y cells (TK+/TK-), Metabolic Activation: Rat, liver, S-9, Aroclor-1254, Method: Suspension/plate) of the same molecule?
**A.** inactive; negative
